Reference: ChEMBL document CHEMBL1135014, “Synthesis, radiolabeling and preliminary biological evaluation of radiolabeled 5-methyl-6-nitroquipazine, a potential radioligand for the serotonin transporter” (Bioorg Med Chem Lett, 2002)

Columns and labels:
[1] = target: Sodium-dependent serotonin transporter (Rattus norvegicus) (UniProt P31652); test: Enzyme kinetic constant, Bmax was evaluated against Serotonin transporter
[2] = target: Sodium-dependent serotonin transporter (Rattus norvegicus, UniProt P31652); test: Binding affinity of the radio labeled [3H]5-Methyl-6-nitroquipazine compound against Serotonin transporter in rat frontal cortex homogenates; assay type: tissue-based
Sequence of Sodium-dependent serotonin transporter (P31652 whole entry): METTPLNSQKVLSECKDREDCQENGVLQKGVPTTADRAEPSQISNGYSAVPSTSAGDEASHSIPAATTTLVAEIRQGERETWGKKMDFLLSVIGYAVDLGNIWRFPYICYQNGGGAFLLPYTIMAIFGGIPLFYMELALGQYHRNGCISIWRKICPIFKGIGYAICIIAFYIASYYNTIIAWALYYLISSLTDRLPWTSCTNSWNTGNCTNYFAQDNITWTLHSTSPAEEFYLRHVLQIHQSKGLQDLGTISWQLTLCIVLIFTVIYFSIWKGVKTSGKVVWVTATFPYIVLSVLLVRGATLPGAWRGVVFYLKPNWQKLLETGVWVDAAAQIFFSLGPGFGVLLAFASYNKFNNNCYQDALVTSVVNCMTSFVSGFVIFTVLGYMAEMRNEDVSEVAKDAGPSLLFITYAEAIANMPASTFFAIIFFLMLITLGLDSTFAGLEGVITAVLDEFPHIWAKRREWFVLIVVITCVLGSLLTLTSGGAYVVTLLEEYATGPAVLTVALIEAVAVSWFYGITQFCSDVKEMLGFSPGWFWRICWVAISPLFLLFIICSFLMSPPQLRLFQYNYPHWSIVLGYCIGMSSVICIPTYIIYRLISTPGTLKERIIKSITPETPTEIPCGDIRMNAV

Sequence of Sodium-dependent serotonin transporter (Rattus norvegicus) (P31652 whole entry): as above

SMILES | Bmax [1] | Kd [2]
Cc1c([N+](=O)[O-])ccc2nc(N3CCNCC3)ccc12 | 1530 fmol/mg | 51 pM
O=[N+]([O-])c1ccc2nc(N3CCNCC3)ccc2c1 [6-NITROQUIPAZINE] | 1530 fmol/mg | 51 pM
